Test results reported in patent US20040192889A1, “Cytotoxic peptides and peptidomimetics based thereon, and methods for use thereof” (priority 2001, published 2004).
Entries after “also recorded” stand apart in the source; their conditions may differ. Residues, ends and D or L forms follow the SMILES beside them. No end group written: not given here. *: point of attachment. Cbz = O=C(OCc1ccccc1)*; CH2F = FC*

Legend:
hippocampal neurons = test: Toxicity of transduced peptides to neurons in primary hippocampal cultures (NeuN immunostaining, quantitative image analysis); format: cell-based; conditions: for NeuN-immunoreactive (neuronal) population: 10 μM peptide
Description: (§1) Hippocampal or cortical neurons derived from 17-day old rat embryos were plated in modified minimum essential media (MEM-PAK) supplemented with 5% horse serum. Three days later, the cultures were treated with 10 μM cytosine arabinoside (AraC). Twenty-four h later the cells were treated with the peptide conjugates and incubated for an additional 24 or 48 h. Cells were incubated in the presence of 50 μM of the general caspase inhibitor BOC-Asp(Ome)-FMK (BAF) for 30 min prior to addition of peptides or with an equivalent volume of dimethylsulfoxide (DMSO) and then maintained in the presence of the same concentration of the inhibitor for the duration of the experiment. In all experiments involving Aβ, a 1 mM Aβ42 stock solution was used that had been incubated at 37° C. for 48 h and then stored at 4° C. to allow for the formation of Aβ fibrils. Aβ42 was purchased from AnaSpec (San Jose, Calif.).
(§2) Peptides were synthesized and purified at the Stanford University Protein and Nucleic Acid (PAN) Facility. All peptide stocks were solubilized in water at 1 or 10 mM concentration. […] A control peptide used was a fusion of the human immunodeficiency virus-1 TAT protein (HIV-TAT) delivery peptide sequence (Hileman et al., FEBS Lett. 415:145-154 (1997) and the first helix of the p75 receptor intracellular domain.
Hippocampal cultures were fixed in 4% paraformaldehyde in 1× phosphate-buffered saline (PBS) for 20 min at room temperature (RT). Cells were then rinsed in 1× PBS and then washed once in 1× Tris-buffered saline (TBS) followed by blocking in 10% donkey serum (Jackson ImmunoResearch Labs, West Grove, Pa.) with 0.1% Triton X-100 in 1×TBS for 1 h at RT. Cultures were incubated overnight in the presence of rabbit anti-GFAP (Sigma, St. Louis) at 1:800 dilution and mouse anti-NeuN (Chemicon, Temecula, Calif.) at 1:100 at 4° C. Negative controls were incubated in 2 mg/ml rabbit and mouse preinimune IgGs (Sigma, St. Louis). All primary antibodies were diluted in 1×TBS containing 10% donkey serum. Cultures were washed for 90 min in 4 changes of 1×TBS and incubated in the presence of donkey anti-rabbit IgG conjugated to Cy3 and donkey anti-mouse IgG conjugated to FITC (Jackson ImmunoResearch Laboratories, Inc., West Grove, Pa.), at 1:250 and 1:400, respectively, in 1×TBS containing 1% donkey serum for 1 h at RT. Cells were washed for 90 min in 4 changes of 1×TBS and mounted in VectaShield-DAPI mounting medium (Vector Laboratories, Burlingame, Calif.). Images were acquired using Nikon Eclipse-800 microscope and Optronics MagnaFire camera and software, and analyzed using Compix Simple PCI software. The total surface area corresponding to red and green fluorescence in each confocal image was determined by image analysis using Simple PCI software (Compix, Inc., Philadelphia).
(§3) To investigate whether this was due to a greater sensitivity of neurons than glial cells to DP-APPC31-induced death, 3-day-old rat hippocampal cultures were exposed to increasing concentrations of DP-APPC31 or control DP peptide and fixed 48 h after transduction. The fixed cultures were then immunostained with antibodies specific for GFAP (red) and NeuN (green). A quantitative assessment of the total area of red and green fluorescence present in low-magnification confocal images of representative fields obtained from three independent experiments was performed using a digital image analysis system (SimplePCl, Compix, Inc, Philadelphia).
APLP1C31 induces death in primary hippocampal cultures. […] If this event occurs in vivo, APLP1 would have the potential to generate a pro-apoptotic C-terminal peptide homologous to APPC31. To deterinine whether the peptide generated by caspase cleavage of APLP1 is toxic, a fusion of APLP1C31 to the Antennapedia delivery peptide (DP-APLP1C31) was generated and assayed in protein transduction experiments. […]

glial cells = test: Toxicity of transduced peptides to glial cells in primary hippocampal cultures (GFAP immunostaining, quantitative image analysis); format: cell-based, rat
Description: as §1
(§4) Peptides were synthesized and purified at the Stanford University Protein and Nucleic Acid (PAN) Facility. All peptide stocks were solubilized in water at 1 or 10 mM concentration. […]
Hippocampal cultures were fixed in 4% paraformaldehyde in 1× phosphate-buffered saline (PBS) for 20 min at room temperature (RT). […] Images were acquired using Nikon Eclipse-800 microscope and Optronics MagnaFire camera and software, and analyzed using Compix Simple PCI software. The total surface area corresponding to red and green fluorescence in each confocal image was determined by image analysis using Simple PCI software (Compix, Inc., Philadelphia).
as §3, with “The fixed cultures were then immunostained with antibodies specific for GFAP (red) and NeuN (green).” left out, “Philadelphia). […]” for “Philadelphia).”

[1] = system: primary hippocampal cultures; test: LIVE/DEAD assay (calcein / EthD-1) of primary hippocampal cultures; format: cell-based, rat; conditions: for toxicity of Aβ alone: 36 hours
Description: as §1
(§5) Primary hippocampal or cortical neuronal culturesor 293 cells transduced with the different penetratin-peptide conjugates were assayed for viability at 24 and 48 h after transduction by trypan blue exclusion or by conversion of 3-[4,5-Dimethylthiazol-2-yl]-2,5-diphenyltetrazolium bromide; Thiazolyl blue (MTT, Sigma, St. Louis) to formazan by dehydrogenase enzymes (MTT, Sigma, St. Louis) and by the LIVE/DEAD assay (Molecular Probes, Eugene, Oreg.), which distinguishes live cells by the presence of intracellular esterase activity, which results in the conversion of the non-fluorescent cell permeant calcein-AM to the intensely green fluorescent calcein. Calcein is retained witlin live cells. Ethidium homodimer-1 (EthD-1) enters cells with damaged membranes and becomes intensely fluorescent when bonding to nucleic acids. EthD-1 is excluded by the intact plasma membrane of live cells. Media were removed and replaced by 4 μM EthD-1 and 2 μM calcein in PBS. […]
(§6) Aβ exacerbates the sensitivity of hippocampal cultures to C31 toxicity. […] Thirty-six hours later, the cultures were evaluated by the LIVE/DEAD assay. […] Cells were stained with Hoechst 33342 and scored for nuclear condensation.

[2] = system: primary hippocampal cultures; test: Viability of primary hippocampal cultures by MTT assay; format: cell-based, rat; conditions: increasing concentrations
Description: as §1
as §2, with “domain. […]” for “domain.”

[3] = system: primary hippocampal cultures; test: Hoechst 33342 staining of condensed, fragmented (apoptotic) nuclei in primary hippocampal cultures; format: cell-based, rat; conditions: for percentage of apoptotic nuclei (Hoechst 33342): cultures preincubated with 5 μM Aβ for 24 h, then exposed to C-C31 or not
Description: as §1, §5, §6

N2a neuroblastoma cells = test: Annexin V-FITC staining of transfected N2a cells; format: cell-based, mouse; conditions: for relative risk (RR) of annexin V-FITC staining with expression / annexin V-positive among construct-positive cells: expression by transfection; for annexin V-positive among construct-positive cells: no tamoxifen or staurosporine, 24 h
Description: Mouse N2a neuroblastoma cells were grown at 37° C. and 5% CO2 in […] Dulbecco's modified Eagle's medium and 45% OptiMEM I (Life Technologies) supplemented with 10% fetal bovine serum and 2 mM glutamine. Plasmid constructs were introduced into the N2a cells with the LipofectAMINE plus transfection reagent (Life Technologies) according to the manufacturer's instructions.
N2a cells were plated on glass cover slips treated with polylysine and were transfected as described above. At 24 h after transfection, cells were directly stained with annexin V-FITC for apoptosis in tissue culture media, according to the manufacturer's instructions (annexin V-FITC Apoptosis Detection Kit; Calbiochem, La Jolla, Calif.). After being stained with annexin V-FITC, cells were fixed for 20 min in 4% parafoimaldehyde in phosphate-buffered saline and permeabilized in 0.5% Triton X-100 in phosphate-buffered saline for 5 min. After being blocked in 5% BSA in phosphate-buffered saline, the cells were incubated for 1 h at room temperature with CT15, diluted 1:2,000. In parallel, cells were stained with propidium iodide after annexin V staining and paraformaldehyde fixation but without permeabilization to verify membrane integrity; the combination of amnexin V staining and membrane integrity indicated apoptosis without secondary necrosis. The primary antibody was detected with Texas Red®-conjugated secondary antibody against rabbit (Molecular Probes, Eugene, Oreg.). Negative controls, which included preimmune serum and cells transfected with pcDNA3 (mock transfection), were assayed in parallel using the protocol described above. The cells were analyzed by confocal nmcroscopy using a BioRad MRC-1024 system. Cells in five random fields were counted for each slide, in duplicate for each condition. The number of cells positive and negative for APP or C31 and apoptosis (annexin V-FITC) were determined, and relative risk was calculated (RR=p1/p2)=concordant staining [(+/+) times (−/−)] divided by discordant staining [(+/−) times (−/+)].
Double-labeling of APP and annexin V in N2a cells after transfection was performed. N2a cells were transfected with either APP or C31 followed by staining with annexin V-FITC to visualize apoptotic cells. Transfected cells were immunolocalized with CT15 followed by Texas Red conjugated secondary antibody to visualize APP or C31 expression. When expressed in N2a cells, C31 but not APP is associated with apoptosis. A high proportion of C31 transfected cells are positive for amnexin V-FITC (green outline of the cell; RR=6.3), whereas in APP-expressing cells, annexin V-FITC staining is sparse (RR=0.77). In control cells transfected with pcDNA3 (mock transfection; control), there is no staining with annexin V-FITC and essentially no staining of endogenous APP at this antibody dilution. Images are representations of four different fields of view of each of three separate experiments.

[4] = system: 293T human embryonic kidney cells; test: Toxicity of C31 peptide to 293T cells; format: cell-based
Description: as §2, §5

PTB domain of Fe65 = test: Binding of C31 to the PTB domain of Fe65
Text: Binding assays can be used to confirm this observation with respect to the C31 peptide derived from APLP1.

[5] = system: primary hippocampal cultures; test: Viability of primary hippocampal cultures by trypan blue exclusion; format: cell-based, rat
Description: as §1, §4, §6

[6] = synthetic peptide delivered into primary cultures

## COC(=O)C[C@H](NC(=O)OC(C)(C)C)C(=O)CF [BAF, BOC-Asp(Ome)-FMK, reference compound]
Hippocampal neurons; BAF 50 μM
  effect of caspase inhibitor on DP-APLP1C31 toxicity: delayed DP-APLP1C31 toxicity
Hippocampal neurons; BAF 50 μM, DP-APPC31 10 μM
  effect of caspase inhibitor on DP-APPC31 toxicity: delayed the toxicity; also recorded: blocked the toxicity

## CC[C@H](C)[C@H](NC(=O)[C@H](CCCCN)NC(=O)[C@@H](NC(=O)[C@H](CCC(N)=O)NC(=O)[C@H](CCCNC(=N)N)NC(=O)[C@@H](N)CSSC[C@H](N)C(=O)N[C@@H](C)C(=O)N[C@@H](C)C(=O)N[C@H](C(=O)N[C@H](C(=O)N1CCC[C@H]1C(=O)N[C@@H](CCC(=O)O)C(=O)N[C@@H](CCC(=O)O)C(=O)N[C@@H](CCCNC(=N)N)C(=O)N[C@@H](Cc1c[nH]cn1)C(=O)N[C@@H](CC(C)C)C(=O)N[C@@H](CO)C(=O)N[C@@H](CCCCN)C(=O)N[C@@H](CCSC)C(=O)N[C@@H](CCC(N)=O)C(=O)N[C@@H](CCC(N)=O)C(=O)N[C@@H](CC(N)=O)C(=O)NCC(=O)N[C@@H](Cc1ccc(O)cc1)C(=O)N[C@@H](CCC(=O)O)C(=O)N[C@@H](CC(N)=O)C(=O)N1CCC[C@H]1C(=O)N[C@H](C(=O)N[C@@H](Cc1ccc(O)cc1)C(=O)N[C@@H](CCCCN)C(=O)N[C@@H](Cc1ccccc1)C(=O)N[C@@H](Cc1ccccc1)C(=O)N[C@@H](CCC(=O)O)C(=O)N[C@@H](CCC(N)=O)C(=O)N[C@@H](CCSC)C(=O)N[C@@H](CCC(N)=O)C(=O)N[C@@H](CC(N)=O)C(=O)O)[C@@H](C)O)[C@@H](C)O)C(C)C)[C@@H](C)CC)C(=O)N[C@@H](Cc1c[nH]c2ccccc12)C(=O)N[C@@H](Cc1ccccc1)C(=O)N[C@@H](CCC(N)=O)C(=O)N[C@@H](CC(N)=O)C(=O)N[C@@H](CCCNC(=N)N)C(=O)N[C@@H](CCCNC(=N)N)C(=O)N[C@@H](CCSC)C(=O)N[C@@H](CCCCN)C(=O)N[C@@H](Cc1c[nH]c2ccccc12)C(=O)N[C@@H](CCCCN)C(=O)N[C@@H](CCCCN)C(=O)O [DP-APPC31]
Glial cells; 10 μM peptide, 48 h after transduction
  glial (GFAP) population: significantly reduced
[1]; 10 μM, 24 h after transduction
  viability of hippocampal neuronal cultures: marked decrease in viability
[2]
  number of viable cells converting MTT into formazan: reduced the number of viable cells
[3]
  percentage of apoptotic nuclei (Hoechst 33342): 72%
[3]; increasing concentrations, 30 hours after transduction
  percentage of condensed, fragmented nuclei, concentration dependence: increase in the percentage of condensed, fragmented nuclei
Hippocampal neurons
  NeuN-immunoreactive (neuronal) population: significantly reduced; also recorded: markedly reduced
Hippocampal neurons; listed as C-C31
  NeuN-immunoreactive (neuronal) population: marked decrease

## CC(C)[C@H](NC(=O)OCc1ccccc1)C(=O)N[C@@H](C)C(=O)N[C@@H](CC(=O)O)C(=O)CF [zVAD.fmk, benzoxycarbonyl-Val-Ala-Asp-CH2F, reference compound] (Cbz-Val-Ala-Asp-CH2F)
N2a neuroblastoma cells; zVAD.fmk treatment
  effect on annexin V staining of C31 transfected cells: decreased annexin V staining of C31 transfected cells to control levels

## AAVTPEERHLSKMQQNGYENPTYKFFEQMQN [C31]
N2a neuroblastoma cells
  relative risk (RR) of annexin V-FITC staining with expression: 6.3
  annexin V-positive among construct-positive cells: 76±10%
Glial cells; rat, astrocytes (glial cells in primary hippocampal cultures)
  CC50: 10 to 25 µM
[4]
  CC50: 50 to 100 µM
PTB domain of Fe65
  binding to the PTB domain of Fe65: binds to the PTB domain of Fe65
Hippocampal neurons; primary culture, read-out: LC50 for hippocampal neurons
  CC50: 1 to 2 µM
[5]; preincubation with 5 μM Aβ for 24 h, then transduction in absence of Aβ, read-out: LC50 in primary cultures pre-exposed to sublethal fibrillar Aβ
  CC50: < 0.5 µM

## APP: wild-type human APP695 expressed from pcDNA3 by transfection
N2a neuroblastoma cells
  relative risk (RR) of annexin V-FITC staining with expression: 0.77
  annexin V-positive among construct-positive cells: 13±5%

## Aβ: Aβ42 purchased from AnaSpec, stock incubated to allow formation of Aβ fibrils [reference compound]
[1]; 50 μM
  toxicity of Aβ alone: decrease the number of viable cells in the culture substantially
[1]; concentrations up to 25 μM
  toxicity of Aβ alone: No measurable toxicity
[3]
  percentage of apoptotic nuclei (Hoechst 33342): ~9%
[5]; 5 μM Aβ
  dead cells with Aβ alone: did not increase the number of dead cells

## PMLTLEEQQLRELQRHGYENPTYRFLEERP [APLP1-C31]
Glial cells; [6]
  LD50 for glial cells: 35 to 40 µM
Hippocampal neurons; [6]
  LD50 for neurons: around 3 micromolar
